# Measurements published in US4054734A, “Amphotericin complexes containing citric acid and calcium” (priority 1976, dated 1977).
# Assays:
# [1] = solubility in methanol adjusted to pH 9.5 with triethylamine; assay type: physicochemical; conditions: pH adjusted to 9.5 with triethylamine
# [2] = solubility in methanol; assay type: physicochemical
# Protocol: The complexes of the present invention are less soluble in methanol than amphotericin B. Forty mg of the complexes of the present invention are soluble in 750 ml of methanol, whereas 100 mg of amphotericin B are soluble in 750 ml of methanol.
Compound,solubility in methanol at pH 9.5 (in words) ([1]; 100 mg in 80 ml of methanol),solubility in methanol (in words) ([2]; 100 mg in 750 ml of methanol),amount soluble in methanol ([2]; in 750 ml of methanol) [mg],extent of solubility in methanol at pH 9.5 ([1]; 100 mg added to 80 ml of methanol) [%],extent of solubilization in methanol ([2]; 100 mg added to 750 ml of methanol) [%]
C[C@@H]1[C@H](O)[C@@H](C)/C=C/C=C/C=C/C=C/C=C/C=C/C=C/[C@H](O[C@@H]2O[C@H](C)[C@@H](O)[C@H](N)[C@@H]2O)C[C@@H]2O[C@](O)(C[C@@H](O)C[C@@H](O)[C@H](O)CC[C@@H](O)C[C@@H](O)CC(=O)O[C@H]1C)C[C@H](O)[C@H]2C(=O)O [amphotericin B],completely soluble,completely soluble,100,–,–
Amphotericin B-Calcium-Oxalic Acid Complex [Example 1],–,–,–,35,40
